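Growth conditions: 96-well plates. Treatment: test compound, 48 hours, 5 concentrations. Analysis: linear interpolation between bracketing concentrations; unreached endpoints set to highest concentration. Definition used: TGI = concentration required for complete inhibition of growth.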
How the values were obtained:
Assay in all cases: inhibition of tumour cell growth, NCI panel, 48 h
SNB-19 CNS = system: SNB-19 CNS
CCRF-CEM leukemia = system: CCRF-CEM leukemia
OVCAR-3 ovarian = system: OVCAR-3 ovarian
UACC-62 melanoma = system: UACC-62 melanoma
PC-3 prostate = system: PC-3 prostate
SK-OV-3 ovarian = system: SK-OV-3 ovarian
A498 renal = system: A498 renal
SK-MEL-28 melanoma = system: SK-MEL-28 melanoma
OVCAR-8 ovarian = system: OVCAR-8 ovarian
HCT-116 colon = system: HCT-116 colon
UACC-257 melanoma = system: UACC-257 melanoma
CAKI-1 renal = system: CAKI-1 renal
ACHN renal = system: ACHN renal
COLO 205 colon = system: COLO 205 colon
SNB-75 CNS = system: SNB-75 CNS
786-0 renal = system: 786-0 renal
SF-539 CNS = system: SF-539 CNS
MOLT-4 leukemia = system: MOLT-4 leukemia
MDA-MB-435 = system: MDA-MB-435
K-562 leukemia = system: K-562 leukemia
NCI-H23 lung = system: NCI-H23 lung
T-47D breast = system: T-47D breast
A549 NSCLC = system: A549 NSCLC
SK-MEL-2 melanoma = system: SK-MEL-2 melanoma
RPMI-8226 leukemia = system: RPMI-8226 leukemia
HL-60(TB) leukemia = system: HL-60(TB) leukemia
HOP-62 NSCLC = system: HOP-62 NSCLC
UO-31 renal = system: UO-31 renal
NCI-H226 lung = system: NCI-H226 lung
MALME-3M melanoma = system: MALME-3M melanoma
NCI-H522 lung = system: NCI-H522 lung
TK-10 renal = system: TK-10 renal
HS 578T breast = system: HS 578T breast
M14 melanoma = system: M14 melanoma
SN12C renal = system: SN12C renal
HCC-2998 colon = system: HCC-2998 colon
MDA-MB-231 breast = system: MDA-MB-231 breast
SK-MEL-5 melanoma = system: SK-MEL-5 melanoma
OVCAR-5 ovarian = system: OVCAR-5 ovarian
MDA-N = system: MDA-N
HCT-15 colon = system: HCT-15 colon
SF-295 CNS = system: SF-295 CNS
IGROV1 ovarian = system: IGROV1 ovarian
LOX IMVI melanoma = system: LOX IMVI melanoma
BT-549 breast = system: BT-549 breast
MCF7 breast = system: MCF7 breast
KM12 colon = system: KM12 colon
U251 CNS = system: U251 CNS
NCI/ADR-RES ovarian = system: NCI/ADR-RES ovarian
SF-268 CNS = system: SF-268 CNS
SR leukemia = system: SR leukemia
HT29 colon = system: HT29 colon
EKVX NSCLC = system: EKVX NSCLC
NCI-H460 lung = system: NCI-H460 lung
SW-620 colon = system: SW-620 colon
DU-145 prostate = system: DU-145 prostate
HOP-92 NSCLC = system: HOP-92 NSCLC
OVCAR-4 ovarian = system: OVCAR-4 ovarian
RXF 393 renal = system: RXF 393 renal

In the case of COc1ccc(C2SCC(=O)N2c2ccc(-n3c(-c4ccccc4)nc4ccccc4c3=O)cc2)cc1OC (stereo not drawn), the TGI (SNB-19 CNS) is reported as over 100 µM, the TGI (CCRF-CEM leukemia) is reported as over 100 µM and the TGI (OVCAR-3 ovarian) is reported as over 100 µM. For the same molecule, the TGI (UACC-62 melanoma) was over 100 µM, the TGI (PC-3 prostate) was over 100 µM and the TGI (SK-OV-3 ovarian) was over 100 µM. The TGI (A498 renal) was over 100 µM, the TGI (SK-MEL-28 melanoma) was over 100 µM and the TGI (OVCAR-8 ovarian) was over 100 µM. For the same molecule, the TGI (HCT-116 colon) was over 100 µM, the TGI (UACC-257 melanoma) was over 100 µM and the TGI (CAKI-1 renal) was over 100 µM. For the same molecule, the TGI (ACHN renal) was over 100 µM, the TGI (COLO 205 colon) was over 100 µM and the TGI (SNB-75 CNS) was 51.7 µM. The TGI (786-0 renal) was over 100 µM, the TGI (SF-539 CNS) was over 100 µM and the TGI (MOLT-4 leukemia) was over 100 µM. It also gave a TGI (MDA-MB-435) of over 100 µM, a TGI (K-562 leukemia) of over 100 µM and a TGI (NCI-H23 lung) of over 100 µM. The TGI (T-47D breast) was over 100 µM, the TGI (A549 NSCLC) was over 100 µM and the TGI (SK-MEL-2 melanoma) was over 100 µM. For the same molecule, the TGI (RPMI-8226 leukemia) was over 100 µM, the TGI (HL-60(TB) leukemia) was over 100 µM and the TGI (HOP-62 NSCLC) was over 100 µM. It also gave a TGI (UO-31 renal) of over 100 µM, a TGI (NCI-H226 lung) of over 100 µM and a TGI (MALME-3M melanoma) of over 100 µM. The TGI (NCI-H522 lung) was over 100 µM, the TGI (TK-10 renal) was over 100 µM and the TGI (HS 578T breast) was over 100 µM. For the same molecule, the TGI (M14 melanoma) was over 100 µM, the TGI (SN12C renal) was over 100 µM and the TGI (HCC-2998 colon) was over 100 µM. It also gave a TGI (MDA-MB-231 breast) of over 100 µM, a TGI (SK-MEL-5 melanoma) of over 100 µM and a TGI (OVCAR-5 ovarian) of over 100 µM. For the same molecule, the TGI (MDA-N) was over 100 µM, the TGI (HCT-15 colon) was over 100 µM and the TGI (SF-295 CNS) was over 100 µM. The TGI (IGROV1 ovarian) was over 100 µM, the TGI (LOX IMVI melanoma) was over 100 µM and the TGI (BT-549 breast) was over 100 µM. For the same molecule, the TGI (MCF7 breast) was over 100 µM, the TGI (KM12 colon) was over 100 µM and the TGI (U251 CNS) was over 100 µM. It also gave a TGI (NCI/ADR-RES ovarian) of over 100 µM, a TGI (SF-268 CNS) of over 100 µM and a TGI (SR leukemia) of over 100 µM. It also gave a TGI (HT29 colon) of over 100 µM, a TGI (EKVX NSCLC) of over 100 µM and a TGI (NCI-H460 lung) of over 100 µM. For the same molecule, the TGI (SW-620 colon) was over 100 µM.
In the case of COCC1OC(OC2C3=C(C(C)C)CCC3(C)/C=C3\C(CCC3(O)COC)C(C)C2O)C(O)C2OC3OC12OC3(C)C1CO1 (stereo not drawn), the TGI (SNB-19 CNS) is reported as over 100 µM, the TGI (CCRF-CEM leukemia) is reported as 59.6 µM and the TGI (OVCAR-3 ovarian) is reported as over 100 µM. For the same molecule, the TGI (UACC-62 melanoma) was over 100 µM, the TGI (PC-3 prostate) was over 100 µM and the TGI (SK-OV-3 ovarian) was over 100 µM. The TGI (A498 renal) was over 100 µM, the TGI (SK-MEL-28 melanoma) was over 100 µM and the TGI (DU-145 prostate) was over 100 µM. The TGI (HOP-92 NSCLC) was over 100 µM, the TGI (OVCAR-8 ovarian) was over 100 µM and the TGI (HCT-116 colon) was over 100 µM. For the same molecule, the TGI (UACC-257 melanoma) was over 100 µM, the TGI (CAKI-1 renal) was 99.7 µM and the TGI (ACHN renal) was over 100 µM. For the same molecule, the TGI (COLO 205 colon) was over 100 µM, the TGI (SNB-75 CNS) was 92.7 µM and the TGI (786-0 renal) was over 100 µM. It also gave a TGI (SF-539 CNS) of over 100 µM, a TGI (MOLT-4 leukemia) of 54 µM and a TGI (MDA-MB-435) of over 100 µM. For the same molecule, the TGI (K-562 leukemia) was over 100 µM, the TGI (NCI-H23 lung) was over 100 µM and the TGI (T-47D breast) was over 100 µM. It also gave a TGI (A549 NSCLC) of over 100 µM, a TGI (SK-MEL-2 melanoma) of over 100 µM and a TGI (RPMI-8226 leukemia) of over 100 µM. The TGI (HL-60(TB) leukemia) was 54.1 µM, the TGI (HOP-62 NSCLC) was over 100 µM and the TGI (UO-31 renal) was 72.1 µM. For the same molecule, the TGI (NCI-H226 lung) was 43.1 µM, the TGI (MALME-3M melanoma) was over 100 µM and the TGI (NCI-H522 lung) was 82.4 µM. It also gave a TGI (TK-10 renal) of over 100 µM, a TGI (OVCAR-4 ovarian) of over 100 µM and a TGI (HS 578T breast) of over 100 µM. The TGI (M14 melanoma) was over 100 µM, the TGI (SN12C renal) was over 100 µM and the TGI (HCC-2998 colon) was over 100 µM. For the same molecule, the TGI (MDA-MB-231 breast) was over 100 µM, the TGI (SK-MEL-5 melanoma) was 67.3 µM and the TGI (OVCAR-5 ovarian) was over 100 µM. The TGI (MDA-N) was over 100 µM, the TGI (HCT-15 colon) was over 100 µM and the TGI (SF-295 CNS) was over 100 µM. For the same molecule, the TGI (IGROV1 ovarian) was over 100 µM, the TGI (RXF 393 renal) was over 100 µM and the TGI (LOX IMVI melanoma) was 99.3 µM. The TGI (BT-549 breast) was 87.8 µM, the TGI (MCF7 breast) was over 100 µM and the TGI (KM12 colon) was over 100 µM. For the same molecule, the TGI (U251 CNS) was 98.8 µM, the TGI (SF-268 CNS) was 68.4 µM and the TGI (SR leukemia) was 75.7 µM. For the same molecule, the TGI (HT29 colon) was over 100 µM, the TGI (EKVX NSCLC) was over 100 µM and the TGI (NCI-H460 lung) was over 100 µM. The TGI (SW-620 colon) was over 100 µM.
For CCCCn1c(C)c(C(=O)OCC)s/c1=N/Nc1nc2ccccc2nc1-c1ccccc1, the TGI (SNB-19 CNS) was over 100 µM, the TGI (CCRF-CEM leukemia) was over 100 µM and the TGI (OVCAR-3 ovarian) was over 100 µM. For the same molecule, the TGI (UACC-62 melanoma) was over 100 µM, the TGI (PC-3 prostate) was over 100 µM and the TGI (SK-OV-3 ovarian) was over 100 µM. For the same molecule, the TGI (A498 renal) was over 100 µM, the TGI (SK-MEL-28 melanoma) was over 100 µM and the TGI (DU-145 prostate) was 94.1 µM. For the same molecule, the TGI (HOP-92 NSCLC) was over 100 µM, the TGI (OVCAR-8 ovarian) was over 100 µM and the TGI (HCT-116 colon) was over 100 µM. For the same molecule, the TGI (UACC-257 melanoma) was over 100 µM, the TGI (CAKI-1 renal) was over 100 µM and the TGI (ACHN renal) was over 100 µM. For the same molecule, the TGI (COLO 205 colon) was over 100 µM, the TGI (SNB-75 CNS) was over 100 µM and the TGI (786-0 renal) was over 100 µM. It also gave a TGI (SF-539 CNS) of over 100 µM, a TGI (MOLT-4 leukemia) of over 100 µM and a TGI (MDA-MB-435) of over 100 µM. For the same molecule, the TGI (K-562 leukemia) was over 100 µM, the TGI (NCI-H23 lung) was over 100 µM and the TGI (T-47D breast) was over 100 µM. It also gave a TGI (A549 NSCLC) of over 100 µM, a TGI (SK-MEL-2 melanoma) of over 100 µM and a TGI (RPMI-8226 leukemia) of over 100 µM. For the same molecule, the TGI (HL-60(TB) leukemia) was over 100 µM, the TGI (HOP-62 NSCLC) was 83.5 µM and the TGI (NCI-H226 lung) was over 100 µM. For the same molecule, the TGI (NCI-H522 lung) was over 100 µM, the TGI (TK-10 renal) was over 100 µM and the TGI (OVCAR-4 ovarian) was over 100 µM. It also gave a TGI (HS 578T breast) of 60.3 µM, a TGI (M14 melanoma) of over 100 µM and a TGI (SN12C renal) of over 100 µM. It also gave a TGI (HCC-2998 colon) of over 100 µM, a TGI (MDA-MB-231 breast) of over 100 µM and a TGI (SK-MEL-5 melanoma) of over 100 µM. It also gave a TGI (OVCAR-5 ovarian) of over 100 µM, a TGI (MDA-N) of over 100 µM and a TGI (HCT-15 colon) of over 100 µM. The TGI (SF-295 CNS) was over 100 µM, the TGI (IGROV1 ovarian) was over 100 µM and the TGI (RXF 393 renal) was over 100 µM. For the same molecule, the TGI (LOX IMVI melanoma) was over 100 µM, the TGI (BT-549 breast) was over 100 µM and the TGI (MCF7 breast) was over 100 µM. The TGI (U251 CNS) was over 100 µM, the TGI (NCI/ADR-RES ovarian) was over 100 µM and the TGI (SR leukemia) was over 100 µM. For the same molecule, the TGI (HT29 colon) was over 100 µM, the TGI (EKVX NSCLC) was over 100 µM and the TGI (NCI-H460 lung) was over 100 µM. For the same molecule, the TGI (SW-620 colon) was over 100 µM.

Source: PubChem BioAssay (NCI)
